Values after ≈ are worked out from the molar mass of the structure shown.

Data set [1] relates to Rattus norvegicus. In words: AUC in Wistar rat assessed as [3-(3-Ethyl-ureido)-5-(2-methyl-pyridin-4-yl)-isoquinolin-8-ylmethyl]-carbamic Acid Methyl Ester at 0.64 mg/kg, iv administered as solution up to 24 hrs by LC-MS/MS analysis. Set-up: time < 24 hr, dose 0.64 mg/kg, route intravenous. The class given is ADME, organism-based. Conditions: in vivo.
Data set [2] is described as follows: Half life in human blood at 1 uM by LC-MS/MS analysis. The class given is ADME, tissue-based.
Data set [3] deals with Rattus norvegicus. As to the kind of experiment: Half life in Wistar rat assessed as [3-(3-Ethyl-ureido)-5-(2-methyl-pyridin-4-yl)-isoquinolin-8-ylmethyl]-carbamic Acid Methyl Ester at 0.64 mg/kg, iv administered as solution up to 24 hrs by LC-MS/MS analysis. The class given is ADME, organism-based. Conditions: in vivo.
Data set [4] concerns Rattus norvegicus. As to the kind of experiment: Oral bioavailability in Wistar rat assessed as [3-(3-Ethyl-ureido)-5-(2-methyl-pyridin-4-yl)-isoquinolin-8-ylmethyl]-carbamic Acid Methyl Ester at […] administered as suspension up to 24 hrs by LC-MS/MS analysis. The class given is ADME, organism-based. Conditions: in vivo.
A short description of data set [5]: Solubility of compound in water at pH 6.3. The class given is physicochemical.
The test system of data set [6] is Staphylococcus aureus. In words: Antibacterial activity against methicillin-sensitive Staphylococcus aureus A-1178 infected in neutropenic mouse assessed as change in bacterial burden in thighs at 38.4 mg/kg, iv administered every 2.75 hrs for 2 times measured 6.5 hrs post infection. The class given is functional.
Data set [7] is described as follows: AUC in Wistar rat at 0.64 mg/kg, iv administered as solution up to 24 hrs by LC-MS/MS analysis. The class given is ADME, organism-based. Set-up: time < 24 hr, dose 0.64 mg/kg, route intravenous. Conditions: in vivo.
Data set [8] in a line: Volume of distribution in steady state in Wistar rat at 0.64 mg/kg, iv administered as solution up to 24 hrs by LC-MS/MS analysis. The class given is ADME, organism-based. Conditions: in vivo, read-out: Vdss.
A short description of data set [9]: Half life in mouse blood at 1 uM by LC-MS/MS analysis. It is filed as ADME, tissue-based.
Data set [10] concerns Rattus norvegicus. As to the kind of experiment: Cmax in Wistar rat assessed as [3-(3-Ethyl-ureido)-5-(2-methyl-pyridin-4-yl)-isoquinolin-8-ylmethyl]-carbamic Acid Methyl Ester at […], po administered as suspension up to 24 hrs by LC-MS/MS analysis. It is filed as ADME, organism-based. Conditions: in vivo.
In data set [11] the test system is Rattus norvegicus. As to the kind of experiment: Volume of distribution in steady state in Wistar rat assessed as [3-(3-Ethyl-ureido)-5-(2-methyl-pyridin-4-yl)-isoquinolin-8-ylmethyl]-carbamic Acid Methyl Ester at 0.64 mg/kg, iv administered as solution up to 24 hrs by LC-MS/MS analysis. It is filed as ADME, organism-based. Conditions: in vivo.
Data set [12] in a line: Stability of the compound at room temperature for weeks. The class given is physicochemical.
In data set [13] the test system is Rattus norvegicus. In words: Tmax in Wistar rat assessed as [3-(3-Ethyl-ureido)-5-(2-methyl-pyridin-4-yl)-isoquinolin-8-ylmethyl]-carbamic Acid Methyl Ester at […], po administered as suspension up to 24 hrs by LC-MS/MS analysis. It is filed as ADME, organism-based. Conditions: in vivo.
Data set [14] is described as follows: Half life in rat blood at 1 uM by LC-MS/MS analysis. It is filed as ADME, tissue-based.
The test system of data set [15] is Rattus norvegicus. In words: AUC in Wistar rat assessed as [3-(3-Ethyl-ureido)-5-(2-methyl-pyridin-4-yl)-isoquinolin-8-ylmethyl]-carbamic Acid Methyl Ester at […], po administered as suspension up to 24 hrs by LC-MS/MS analysis. It is filed as ADME, organism-based. Conditions: in vivo.
Data set [16] concerns Staphylococcus aureus. As to the kind of experiment: Antibacterial activity against methicillin-sensitive Staphylococcus aureus A-1178 infected in neutropenic mouse assessed as change in bacterial burden in thighs at […], iv administered every 2.75 hrs for 2 times measured 6.5 hrs post infection. The class given is functional.
Data set [17] can be described thus: Clearance in Wistar rat at 0.64 mg/kg, iv administered as solution up to 24 hrs by LC-MS/MS analysis. It is filed as ADME, organism-based. Conditions: in vivo.
Data set [18] can be described thus: Half life in Wistar rat at 0.64 mg/kg, iv administered as solution up to 24 hrs by LC-MS/MS analysis. It is filed as ADME, organism-based. Conditions: in vivo.
For data set [19], the system named is Rattus norvegicus. In words: AUC in Wistar rat at […], po administered as suspension up to 24 hrs by LC-MS/MS analysis. Conditions: in vivo, BLD = below limit of detection. The class given is ADME, organism-based.

Usually AUC stands for concentration integrated over time. Broadly, the half-life is the time in which the quantity being followed falls by half. Read a high half-life as slow decline. By solubility is commonly meant the dissolved amount per volume that the medium holds. One may read the Cmax as the highest concentration seen after dosing. In general, Vdss refers to the apparent volume that relates the amount in the body to the concentration in plasma or blood. As usually defined, the Tmax is the time from dosing to the highest level. By clearance is commonly meant a measure of how efficiently the substance is removed, as volume per time. As to `CCNC(=O)Nc1cc2c(-c3cc[n+](COP(=O)([O-])O)c(C)c3)ccc(CNC(=O)OC)c2cn1`, the AUC was 301 ng·h/mL in the data set with Rattus norvegicus [1], 310 ng·h/mL in the data set on Rattus norvegicus [15] and “Bld” with Rattus norvegicus [19]. Besides, the results for the half-life at 1 µM in data set [2], in data set [9] and in [14] were 18 min, 96 min and 60 min, respectively. Further, the t1/2 in the data set on Rattus norvegicus [3] worked out at 48 min. Further, the F in the data set on Rattus norvegicus [4] is 30%. The solubility in [5] stood at 12.7 mg/mL (≈ 25.2 mM). Further, the Activity in the data set on Staphylococcus aureus [6] is < -4.8 deltalog10CFU; with Staphylococcus aureus [16], -3.6 deltalog10CFU. Also, the exposure (AUC) at 24 h in [7] turned out to be 79 ng·h/mL. Besides, in data set [8], the Vd turned out to be 0.5 L/kg. For the same compound, the Cmax with Rattus norvegicus [10] came out at 250 ng/mL. Besides, in the data set with Rattus norvegicus [11], the Vdss worked out at 1.1 L/kg. Moreover, the Stability entry in [12] was “Stable”. Also, the Tmax in the data set with Rattus norvegicus [13] amounted to 30 min. Besides, the clearance in data set [17] amounted to 130 mL/min/kg. The compound also showed a half-life in [18] of 12 min.
